The target of this experiment is T1, Human M4 (Homo sapiens, UniProt P08173).
T1 construct: expressed in transfected cells; host or cells: CHO-K1 (Chinese hamster ovary, ATCC), stably expressing M4 and Gqi5
T1 sequence (P08173 1-479): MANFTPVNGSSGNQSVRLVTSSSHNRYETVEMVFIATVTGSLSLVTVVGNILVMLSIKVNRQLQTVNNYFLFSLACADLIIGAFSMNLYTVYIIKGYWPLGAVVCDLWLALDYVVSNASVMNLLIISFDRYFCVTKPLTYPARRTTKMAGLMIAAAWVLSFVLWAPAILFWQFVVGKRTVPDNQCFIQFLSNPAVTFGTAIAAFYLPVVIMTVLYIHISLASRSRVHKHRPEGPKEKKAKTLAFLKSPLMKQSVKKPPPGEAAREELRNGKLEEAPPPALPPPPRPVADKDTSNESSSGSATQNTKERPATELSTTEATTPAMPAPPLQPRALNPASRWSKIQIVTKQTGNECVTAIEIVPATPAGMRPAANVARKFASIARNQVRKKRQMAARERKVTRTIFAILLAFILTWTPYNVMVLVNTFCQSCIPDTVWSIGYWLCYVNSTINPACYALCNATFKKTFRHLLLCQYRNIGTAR
As to the kind of experiment: mAChR M4 cell-based functional assay (calcium flux, EC80 acetylcholine response). The following applies: M4/Gqi5/CHO-K1 cells; for remaining activity at 30 µM: % ACh maximum at 30 μM, read-out: Human M4 Emin (% ACh maximum at 30 μM); for IC50: decrease of the response to an EC80 concentration of acetylcholine, read-out: Human M4 IC50. Here is the method:
Human or rat M4 cDNA, along with the chimeric G protein Gqi5, were transfected into Chinese hamster ovary (CHO-K1) cells purchased from the American Type Culture Collection using Lipofectamine2000. M4/Gqi5/CHO cells were grown in Ham's F-12 medium containing […] heat-inactivated fetal bovine serum (FBS), 20 mM HEPES, 500 μg/mL G418 sulfate, and 200 μg/mL Hygromycin B.
For high throughput measurement of agonist-evoked increases in intracellular calcium, CHO-K1 cells stably expressing muscarinic receptors were plated in growth medium lacking G418 and hygromycin at 15,000 cells/20 μL/well in Greiner 384-well black-walled, tissue culture (TC)-treated, clear-bottom plates (VWR). Cells were incubated overnight at 37° C. and 500 CO2. […] Compound master plates were formatted in a 10 point concentration-response curve (CRC) format (1:3 dilutions) in 100% DMSO with a starting concentration of 10 or 1 mM using a BRAVO liquid handler (Agilent). Test compound CRCs were then transferred to daughter plates (240 nL) using the Echo acoustic plate reformatter (Labcyte, Sunnyvale, CA) and then diluted into assay buffer (40 μL) to a 2× stock using a Thermo Fisher Combi (Thermo Fisher Scientific, Waltham, MA).
Calcium flux was measured using the Functional Drug Screening System (FDSS) 6000 or 7000 (Hamamatsu Corporation, Tokyo, Japan) as an increase in the fluorescent static ratio. Compounds were applied to cells (20 μL, 2×) using the automated system of the FDSS at 2 seconds into the protocol and the data were collected at 1 Hz. […] Agonist activity was analyzed as a concentration-dependent increase in calcium mobilization upon compound addition. Positive allosteric modulator activity was analyzed as a concentration-dependent increase in the EC20 acetylcholine response. Antagonist activity was analyzed as a concentration-dependent decrease in the EC80 acetylcholine response; for the purposes of the tables herein, an IC50 (inhibitory concentration 50) was calculated as a concentration-dependent decrease of the response elicited by an EC80 concentration of acetylcholine. Concentration-response curves were generated using a four-parameter logistical equation in XLFit curve fitting software (IDBS, Bridgewater, NJ) for Excel (Microsoft, Redmond, WA) or Prism (GraphPad Software, Inc., San Diego, CA) or the Dotmatics software platform (Dotmatics, Bishop's Stortford, UK).
Compounds were synthesized as described above.
A general note: Calcium flux is commonly read through the fluorescence of an indicator in the cells.

Molecules are shown by their SMILES.

Consider `[2H]C([2H])(C1CCOCC1)N1C[C@H]2C[C@H](Nc3nnc(-c4ccc5nn(C)cc5c4C)cc3C)C[C@H]2C1` [compound 28, (3aR,5s,6aS)-N-(6-(2,4-dimethyl-2H-indazol-5-yl)-4-methylpyridazin-3-yl)-2-((tetrahydro-2H-pyran-4-yl)methyl-d2)octahydrocyclopenta[c]pyrrol-5-amine], for which the remaining activity at 30 µM was 17%. For the compound `[2H]C([2H])([C@@H]1COCCO1)N1C[C@H]2C[C@H](Nc3ccc(-c4ccc5nn(C)cc5c4C)nn3)C[C@H]2C1` [compound 16, (3aR,5s,6aS)-2-(((R)-1,4-dioxan-2-yl)-methyl-d2)-N-(6-(2,4-dimethyl-2H-indazol-5-yl)pyridazin-3-yl)octahydrocyclopenta[c]pyrrol-5-amine], the remaining activity at 30 µM stood at 3% and the IC50 is 8.9 nM. In the case of `COc1cc(-c2ccc3nn(C)cc3c2C)nnc1N[C@H]1C[C@@H]2CN(CC3CCOCC3)C[C@@H]2C1` [compound 26, (3aR,5s,6aS)-N-(6-(2,4-dimethyl-2H-indazol-5-yl)-4-methoxypyridazin-3-yl)-2-((tetrahydro-2H-pyran-4-yl)-methyl)octahydrocyclopenta[c]pyrrol-5-amine], the remaining activity at 30 µM came out at 4% and the IC50 was 0.79 nM. Consider `[2H]C([2H])(C1CCOCC1)N1C[C@H]2C[C@H](Nc3ccc(-c4ccc5nn(C)cc5c4C(F)(F)F)nn3)C[C@H]2C1` [compound 8, (3aR,5s,6aS)-N-(6-(2-methyl-4-(trifluoromethyl)-2H-indazol-5-yl)-pyridazin-3-yl)-2-((tetrahydro-2H-pyran-4-yl)methyl-d2)octahydrocyclopenta[c]pyrrol-5-amine], for which the remaining activity at 30 µM worked out at 10% and the IC50 stood at 1.1 nM. For `[2H]C([2H])([C@@H]1CCCOC1)N1C[C@H]2C[C@H](Nc3ccc(-c4ccc5nn(C)cc5c4C)nn3)C[C@H]2C1` [compound 13, (3aR,5s,6aS)-N-(6-(2,4-dimethyl-2H-indazol-5-yl)pyridazin-3-yl)-2-(((S)-tetrahydro-2H-pyran-3-yl)methyl-d2)octahydrocyclopenta[c]pyrrol-5-amine], the remaining activity at 30 µM is 4% and the IC50 is 0.49 nM.

Take `[2H][C@@]1(Nc2ccc(-c3ccc4nn(C)cc4c3C)nn2)C[C@H]2CN(CC3CCOCC3)C[C@H]2C1` [compound 3, (3aR,5s,6aS)-N-(6-(2,4-dimethyl-2H-indazol-5-yl)pyridazin-3-yl)-2-((tetrahydro-2H-pyran-4-yl)methyl)octahydrocyclopenta[c]pyrrol-5-d-5-amine]: the remaining activity at 30 µM stood at 2% and the IC50 stood at 0.33 nM.

For the compound `[2H]C([2H])(C1CCOCC1)N1C[C@H]2C[C@H](Nc3ccc(-c4ccc5nn(C([2H])([2H])[2H])cc5c4C)nn3)C[C@H]2C1` [compound 9, (3aR,5s,6aS)-N-(6-(4-methyl-2-(methyl-d3)-2H-indazol-5-yl)pyridazin-3-yl)-2-((tetrahydro-2H-pyran-4-yl)methyl-d2)octahydrocyclopenta[c]pyrrol-5-amine], the remaining activity at 30 µM was determined as 3% and the IC50 turned out to be 0.37 nM. Turning to `Cc1c(-c2cc(C(F)F)c(N[C@H]3C[C@@H]4CN(CC5CCOCC5)C[C@@H]4C3)nn2)ccc2nn(C)cc12` [compound 29, (3aR,5s,6aS)-N-(4-(difluoromethyl)-6-(2,4-dimethyl-2H-indazol-5-yl)pyridazin-3-yl)-2-((tetrahydro-2H-pyran-4-yl)methyl)octahydrocyclopenta[c]pyrrol-5-amine], the remaining activity at 30 µM worked out at 3%. Still for that read-out and setting: the same measure for `Cc1c(-c2cc(C(F)(F)F)c(N[C@H]3C[C@@H]4CN(CC5CCOCC5)C[C@@H]4C3)nn2)ccc2nn(C)cc12` [compound 30, (3aR,5s,6aS)-N-(6-(2,4-dimethyl-2H-indazol-5-yl)-4-(trifluoromethyl)-pyridazin-3-yl)-2-((tetrahydro-2H-pyran-4-yl)methyl)-octahydrocyclopenta[c]pyrrol-5-amine]: 2%. Take `[2H]C1([2H])CC(C([2H])([2H])N2C[C@H]3C[C@H](Nc4nnc(-c5ccc6nn(C)cc6c5C)cc4C)C[C@H]3C2)CC([2H])([2H])O1` [compound 24, (3aR,5s,6aS)-N-(6-(2,4-dimethyl-2H-indazol-5-yl)-4-methylpyridazin-3-yl)-2-((tetrahydro-2H-pyran-4-yl-2,2,6,6-d4)methyl-d2)octahydrocyclopenta[c]pyrrol-5-amine]: the remaining activity at 30 µM was determined as 3% and the IC50 was 0.21 nM. On the same counts, the results for `Cc1c(-c2ccc(N[C@H]3C[C@@H]4CN(Cc5ccccn5)C[C@@H]4C3)nn2)ccc2nn(C)cc12` [compound 4, (3aR,5s,6aS)-N-(6-(2,4-dimethyl-2H-indazol-5-yl)pyridazin-3-yl)-2-(pyridin-2-ylmethyl)octahydrocyclopenta[c]pyrrol-5-amine] are 3% and 2.2 nM.

In the case of `Cc1cc2nn(C)cc2cc1-c1ccc(N[C@H]2C[C@@H]3CN(CC4CCOCC4)C[C@@H]3C2)nn1` [compound 1, (3aR,5s,6aS)-N-(6-(2,6-dimethyl-2H-indazol-5-yl)pyridazin-3-yl)-2-((tetrahydro-2H-pyran-4-yl)methyl)octahydrocyclopenta[c]pyrrol-5-amine], the remaining activity at 30 µM amounted to 3% and the IC50 was determined as 2.7 nM.

Turning to `[2H]C([2H])(C1CC(C)(C)OC(C)(C)C1)N1C[C@H]2C[C@H](Nc3ccc(-c4ccc5nn(C)cc5c4C)nn3)C[C@H]2C1` [compound 19, (3aR,5s,6aS)-N-(6-(2,4-dimethyl-2H-indazol-5-yl)pyridazin-3-yl)-2-((2,2,6,6-tetramethyltetrahydro-2H-pyran-4-yl)methyl-d2)octahydrocyclopenta[c]pyrrol-5-amine], the remaining activity at 30 µM worked out at 5% and the half-inhibitory concentration (IC50) amounted to 5 nM. On the same counts, the results for `[2H]C([2H])([C@@H]1CCCCO1)N1C[C@H]2C[C@H](Nc3ccc(-c4ccc5nn(C)cc5c4C)nn3)C[C@H]2C1` [compound 12, (3aR,5s,6aS)-N-(6-(2,4-dimethyl-2H-indazol-5-yl)pyridazin-3-yl)-2-(((S)-tetrahydro-2H-pyran-2-yl)methyl-d2)octahydrocyclopenta[c]pyrrol-5-amine] are 2% and 0.36 nM. On the same counts, the results for `[2H]C([2H])(N1C[C@H]2C[C@H](Nc3ccc(-c4ccc5nn(C)cc5c4C)nn3)C[C@H]2C1)C1(F)CCOCC1` [compound 20, (3aR,5s,6aS)-N-(6-(2,4-dimethyl-2H-indazol-5-yl)pyridazin-3-yl)-2-((4-fluorotetrahydro-2H-pyran-4-yl)methyl-d2)octahydrocyclopenta[c]pyrrol-5-amine] are 4% and 0.99 nM.

Turning to `[2H]C([2H])([C@H]1CCCCO1)N1C[C@H]2C[C@H](Nc3ccc(-c4ccc5nn(C)cc5c4C)nn3)C[C@H]2C1` [compound 11, (3aR,5s,6aS)-N-(6-(2,4-dimethyl-2H-indazol-5-yl)pyridazin-3-yl)-2-(((R)-tetrahydro-2H-pyran-2-yl)-methyl-d2)octahydrocyclopenta[c]pyrrol-5-amine], the remaining activity at 30 µM stood at 2% and the IC50 is 0.41 nM. The matching figures for `[2H]C([2H])(C1CCOCC1)N1C[C@H]2C[C@H](Nc3ccc(-c4ccc5nn(C(F)F)cc5c4C)nn3)C[C@H]2C1` [compound 10, (3aR,5s,6aS)-N-(6-(2-(difluoromethyl)-4-methyl-2H-indazol-5-yl)pyridazin-3-yl)-2-((tetrahydro-2H-pyran-4-yl)methyl-d2)octahydrocyclopenta[c]pyrrol-5-amine]: 2% and 0.36 nM.

By IC50 is commonly meant the midpoint of a concentration-inhibition curve.

Source of the values: patent publication US20240174655A1, “INDAZOLE DERIVATIVES AS ANTAGONISTS OF THE MUSCARINIC ACETYLCHOLINE RECEPTOR M4” (Vanderbilt University, priority 2021, published 2024).
